Results published in paper PMC4387075 (Neuropharmacology, 2015).
pEC50, pIC50: −log10 of the molar value. “Also recorded” adds a separate entry of the source. Read-outs that look alike come from different tables or passages of the source.

Assays:
cerebellar granule cells = assay: Cell viability; settings: for pIC50: read-out: IC50 for inhibition of glutamate neuroprotection, 1 mM glutamate in K5; for effect of agonist on viability of granule cells in K5: K5, 16 hours, MTT; for maximum effect on granule cell viability: percent of viability in K25 cultures, K5 media, 16 hours; for effect of antagonist on NMDA-induced increase in granule cell viability: 1 mM NMDA in K5, MK801 1 μM, JNJ16259685 300 μM
mGlu1 receptors = mGlu1 receptors (Rattus norvegicus, UniProt P23385); assay: PI hydrolysis; type: cell-based; settings: for PI hydrolysis Emax, % glu: efficacy as percentage of glutamate efficacy, mean +/- 95% confidence interval; for agonist bias between PI hydrolysis and neuroprotection: from Emax values of both responses (Figure 7); for effect of antagonist on PI hydrolysis stimulated by quisqualate, DHPG and ACPD: agonists 100 μM, JNJ16259685 300 μM, CPCCOEt 200 μM, MPEP 10 μM
Sequence of mGlu1 receptors (P23385 19-1199): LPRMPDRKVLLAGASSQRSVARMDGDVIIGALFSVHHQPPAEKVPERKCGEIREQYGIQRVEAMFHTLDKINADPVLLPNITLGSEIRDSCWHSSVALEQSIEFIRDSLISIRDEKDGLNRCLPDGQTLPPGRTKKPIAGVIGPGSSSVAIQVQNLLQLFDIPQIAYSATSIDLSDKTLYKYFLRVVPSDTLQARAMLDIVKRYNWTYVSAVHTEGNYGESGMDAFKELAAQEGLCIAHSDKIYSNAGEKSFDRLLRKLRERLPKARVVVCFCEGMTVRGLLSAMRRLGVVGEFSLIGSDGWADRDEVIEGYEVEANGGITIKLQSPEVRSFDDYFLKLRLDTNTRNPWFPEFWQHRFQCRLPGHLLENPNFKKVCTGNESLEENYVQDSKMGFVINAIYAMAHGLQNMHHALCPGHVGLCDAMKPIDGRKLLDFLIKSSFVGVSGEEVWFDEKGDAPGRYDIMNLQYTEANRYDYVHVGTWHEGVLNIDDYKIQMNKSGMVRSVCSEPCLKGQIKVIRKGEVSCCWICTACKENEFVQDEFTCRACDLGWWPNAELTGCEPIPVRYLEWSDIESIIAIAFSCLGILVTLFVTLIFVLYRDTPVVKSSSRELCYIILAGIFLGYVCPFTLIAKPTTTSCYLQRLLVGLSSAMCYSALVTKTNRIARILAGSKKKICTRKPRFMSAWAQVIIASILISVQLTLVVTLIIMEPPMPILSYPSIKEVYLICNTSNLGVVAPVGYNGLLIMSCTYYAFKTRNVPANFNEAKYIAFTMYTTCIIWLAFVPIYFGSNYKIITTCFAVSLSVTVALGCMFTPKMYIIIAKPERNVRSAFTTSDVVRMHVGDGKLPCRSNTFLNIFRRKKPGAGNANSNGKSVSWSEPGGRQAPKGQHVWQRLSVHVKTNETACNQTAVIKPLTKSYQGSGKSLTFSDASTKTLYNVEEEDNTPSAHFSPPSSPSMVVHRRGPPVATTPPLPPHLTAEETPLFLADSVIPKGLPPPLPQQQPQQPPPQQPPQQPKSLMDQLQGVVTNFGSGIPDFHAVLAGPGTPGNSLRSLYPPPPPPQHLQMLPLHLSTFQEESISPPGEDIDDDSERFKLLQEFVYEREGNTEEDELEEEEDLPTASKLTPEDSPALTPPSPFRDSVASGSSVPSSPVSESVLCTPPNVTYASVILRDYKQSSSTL

[1] = test system: mGlu1 receptor-expressing CHO cells; settings: ref Emery et al., 2012, cited from earlier work; for ERK phosphorylation or protection: transfected CHO cells; for protection from serum starvation: mGlu1 receptor-expressing CHO cells
mGlu1 receptor = settings: mGlu1 receptor-expressing CHO cells; ref Emery et al., 2012; cited from earlier work
[2] = read-out: PI hydrolysis EC50, mean (95% confidence interval)

## 7-(Hydroxyimino)cyclopropa[b]chromen-1a-carboxylate ethyl ester [CPCCOEt]
Cerebellar granule cells
  pIC50: 3.91

## N[C@@]1(C(=O)O)CC[C@@H](C(=O)O)C1 [ACPD, (1S,3R)-1-aminocyclopentane-1,3-dicarboxylic acid]
mGlu1 receptors
  agonist type for PI hydrolysis compared to glutamate: partial agonists
  PI hydrolysis at 100 μM agonist compared to Locke's media only: significant increase
  PI hydrolysis Emax, % glu: 66 ± 1.4 % glu
  agonist bias between PI hydrolysis and neuroprotection: completely biased towards PI hydrolysis
Cerebellar granule cells
  effect of agonist on viability of granule cells in K5: not significantly increased
  maximum effect on granule cell viability: 49 ± 5%

## N[C@@H](CC(=O)O)C(=O)O [Aspartate, aspartate]
mGlu1 receptors
  pEC50: 4.72
  PI hydrolysis Emax, % glu: 103 ± 7.8 % glu
  agonist bias between PI hydrolysis and neuroprotection: balanced agonists
Cerebellar granule cells
  effect of agonist on viability of granule cells in K5: prevented

## N[C@@H](CS(=O)(=O)O)C(=O)O [Cysteic acid]
mGlu1 receptors
  PI hydrolysis Emax, % glu: 87 ± 4.2 % glu
mGlu1 receptors; [2]
  pEC50: 4.66
Cerebellar granule cells
  effect of agonist on viability of granule cells in K5: prevented

## N[C@@H](CS(=O)O)C(=O)O [Cysteine sulfinic acid]
mGlu1 receptors
  PI hydrolysis Emax, % glu: 82 ± 10 % glu
mGlu1 receptors; [2]
  pEC50: 4.54
Cerebellar granule cells
  effect of agonist on viability of granule cells in K5: prevented

## NC(C(=O)O)c1cc(O)cc(O)c1 (stereo not drawn) [DHPG, 3,5-dihydroxyphenylglycine]
mGlu1 receptors
  pEC50: 4.64
  agonist type for PI hydrolysis compared to glutamate: partial agonists
  PI hydrolysis at 100 μM agonist compared to Locke's media only: significant increase
  PI hydrolysis Emax, % glu: 69 ± 3.7 % glu
  agonist bias between PI hydrolysis and neuroprotection: completely biased towards PI hydrolysis
[1]
  ERK phosphorylation or protection: do not stimulate
Cerebellar granule cells
  effect of agonist on viability of granule cells in K5: not significantly increased

## N[C@@H](CCC(=O)O)C(=O)O [Glutamate, glutamate]
Cerebellar granule cells
  effect of agonist on viability of granule cells in K5: prevented
  maximum effect on granule cell viability: 65%

## N[C@@H](CCS(=O)(=O)O)C(=O)O [Homocysteic acid]
mGlu1 receptors
  PI hydrolysis Emax, % glu: 84 ± 7.4 % glu
mGlu1 receptors; [2]
  pEC50: 4.54
Cerebellar granule cells
  effect of agonist on viability of granule cells in K5: prevented

## COC1CCC(C(=O)c2ccc3nc4c(cc3c2)CCCO4)CC1 (stereo not drawn) [JNJ16259685]
mGlu1 receptors
  effect of antagonist on PI hydrolysis stimulated by quisqualate, DHPG and ACPD: significantly decreased
Cerebellar granule cells
  effect of antagonist on NMDA-induced increase in granule cell viability: blocked
  pIC50: 4.70

## C[C@]12N[C@H](Cc3ccccc31)c1ccccc12 [MK801]
Cerebellar granule cells
  effect of antagonist on NMDA-induced increase in granule cell viability: significantly inhibited

## Cc1cccc(C#Cc2ccccc2)n1 [MPEP]
mGlu1 receptors
  effect of antagonist on PI hydrolysis stimulated by quisqualate, DHPG and ACPD: no effect

## CN[C@H](CC(=O)O)C(=O)O [NMDA, N-methyl-D-aspartate]
Cerebellar granule cells
  maximum effect on granule cell viability: 73%

## N[C@@H](Cn1oc(=O)[nH]c1=O)C(=O)O [Quisqualate, quisqualate]
mGlu1 receptors
  agonist type for PI hydrolysis compared to glutamate: full agonist
  PI hydrolysis at 100 μM agonist compared to Locke's media only: significant increase
  PI hydrolysis Emax, % glu: 109 ± 7.8 % glu
  agonist bias between PI hydrolysis and neuroprotection: completely biased towards PI hydrolysis
[1]
  ERK phosphorylation or protection: do not stimulate
Cerebellar granule cells
  effect of agonist on viability of granule cells in K5: not significantly increased; also recorded: no efficacy

## O=C(O)CCCC(=O)O [glutaric acid]
mGlu1 receptor
  efficacy for PI hydrolysis: no efficacy
[1]
  protection from serum starvation: able to protect

## O=C(O)CCC(=O)O [succinic acid]
mGlu1 receptor
  efficacy for PI hydrolysis: no efficacy
[1]
  protection from serum starvation: able to protect
